Measured values taken from PMC3127140, “In Vivo Anti-Tumor Activity of Polypeptide HM-3 Modified by Different Polyethylene Glycols (PEG)” (International Journal of Molecular Sciences, 2011).

Tested on: Human hepatic carcinoma SMMC-7721 cell line
Test: Inhibitory effect on growth of human hepatoma SMMC-7721 xenografts in nude mice (tumor weight / tumor volume)
Type: in vivo, BALB/c nude mouse
Details: SMMC-7721 xenograft in BALB/c nude mice, n = 6 per group, i.v. for 21 days, tumors weighed the next day; (W − Wt)/W versus normal saline control; Taxol 10 mg/kg twice a week; HM-3 3 mg/(kg·d) twice a day; ALD-mPEG5k-HM-3 11.4 mg/(kg·d) once a day; ALD-mPEG10k-HM-3 and SC-mPEG10k-HM-3 19.9 mg/(kg·2d) every two days; SC-mPEG20k-HM-3 36.7 mg/(kg·2d) every two days (dose as total PEG conjugate)
Procedure: Human hepatic carcinoma SMMC-7721 cell line was purchased from American type Cell Culture (ATCC, Shanghai, China) and maintained in Dulbecco’s modified Eagle’s medium (DMEM) with 10% fetal bovine serum and antibiotics. BALB/c nude female mouse (SPF grade, 4–5 w, 20.9 ± 0.492 g) were purchased from the Shanghai Laboratory Animal Center of the Chinese Academy of Sciences.
SMMC-7721 cells were cultured in DMEM medium under 5% CO2/saturated humidified air at 37 °C. Cells were digested with the mixture of the trypsin (0.25%) and EDTA (0.02%) at logarithmic growth phase and passaged every 3–4 day. […]
All the mice (20 g) were administrated intravenously for 21 days and the tumor volumes were measured every two days. […] Antitumor ratio determined by the tumor volumes is (V − Vt)/V (V is the average tumor volume of the control group, and Vt is the average tumor volume of the treated group). The antitumor ratio by the tumor weights was also calculated as (W − Wt)/W (W is the average tumor weight of the control group, and Wt is the average tumor weight of the treatment group).
The data was analyzed using the statistics software SPSS13.0, which are expressed as mean ± SD. Statistical significance was assessed using the Student t test. […]

CC(=O)O[C@H]1C(=O)[C@@]2(C)[C@H]([C@H](OC(=O)c3ccccc3)[C@]3(O)C[C@H](OC(=O)[C@H](O)[C@@H](NC(=O)c4ccccc4)c4ccccc4)C(C)=C1C3(C)C)[C@]1(OC(C)=O)CO[C@@H]1C[C@@H]2O [Taxol, paclitaxel]
Tumor weight inhibition rate (inhibition rate of average tumor weight): 44.50%
